Experimental findings from ChEMBL document CHEMBL3352592, “The antileishmanial activity of isoforms 6- and 8-selective histone deacetylase inhibitors” (Bioorg Med Chem Lett, 2014) are described below.

Each structure is given as a SMILES string. Converted amounts (≈) assume the structure as drawn.

The subject of test [1] is THP-1. The test can be described thus: Cytotoxicity against human THP1 cells after 48 hrs by Alamar blue assay. The class given is ADME, cell-based. The following applies: THP-1, 48 h. A general note: Resazurin is reduced to fluorescent resorufin, in cell work by metabolically active cells.
Test [2] relates to Leishmania donovani. The test can be described thus: Antileishmanial activity against promastigote stage of Leishmania donovani after 72 hrs by Alamar blue assay. In kind it is functional, organism-based.
Test [3] concerns Leishmania donovani. In words: Antileishmanial activity against amastigote stage of Leishmania donovani infected in human THP1 cells after 48 hrs by Alamar blue assay. In kind it is functional, organism-based. The following applies: THP-1, 48 h.
Test [4] concerns Leishmania donovani. The test can be described thus: Antileishmanial activity against axenic amastigote stage of Leishmania donovani after 72 hrs by Alamar blue assay. In kind it is functional, organism-based.
Test [5] has as its system Leishmania donovani. The test can be described thus: Selectivity ratio of IC50 for axenic amastigote stage of Leishmania donovani to IC50 for amastigote stage of Leishmania donovani infected in human THP1 cells. In kind it is functional, THP-1.
The target in test [6] is T1, Protein deacetylase HDAC6 (Homo sapiens, UniProt Q9UBN7).
T1 sequence (Q9UBN7 whole entry): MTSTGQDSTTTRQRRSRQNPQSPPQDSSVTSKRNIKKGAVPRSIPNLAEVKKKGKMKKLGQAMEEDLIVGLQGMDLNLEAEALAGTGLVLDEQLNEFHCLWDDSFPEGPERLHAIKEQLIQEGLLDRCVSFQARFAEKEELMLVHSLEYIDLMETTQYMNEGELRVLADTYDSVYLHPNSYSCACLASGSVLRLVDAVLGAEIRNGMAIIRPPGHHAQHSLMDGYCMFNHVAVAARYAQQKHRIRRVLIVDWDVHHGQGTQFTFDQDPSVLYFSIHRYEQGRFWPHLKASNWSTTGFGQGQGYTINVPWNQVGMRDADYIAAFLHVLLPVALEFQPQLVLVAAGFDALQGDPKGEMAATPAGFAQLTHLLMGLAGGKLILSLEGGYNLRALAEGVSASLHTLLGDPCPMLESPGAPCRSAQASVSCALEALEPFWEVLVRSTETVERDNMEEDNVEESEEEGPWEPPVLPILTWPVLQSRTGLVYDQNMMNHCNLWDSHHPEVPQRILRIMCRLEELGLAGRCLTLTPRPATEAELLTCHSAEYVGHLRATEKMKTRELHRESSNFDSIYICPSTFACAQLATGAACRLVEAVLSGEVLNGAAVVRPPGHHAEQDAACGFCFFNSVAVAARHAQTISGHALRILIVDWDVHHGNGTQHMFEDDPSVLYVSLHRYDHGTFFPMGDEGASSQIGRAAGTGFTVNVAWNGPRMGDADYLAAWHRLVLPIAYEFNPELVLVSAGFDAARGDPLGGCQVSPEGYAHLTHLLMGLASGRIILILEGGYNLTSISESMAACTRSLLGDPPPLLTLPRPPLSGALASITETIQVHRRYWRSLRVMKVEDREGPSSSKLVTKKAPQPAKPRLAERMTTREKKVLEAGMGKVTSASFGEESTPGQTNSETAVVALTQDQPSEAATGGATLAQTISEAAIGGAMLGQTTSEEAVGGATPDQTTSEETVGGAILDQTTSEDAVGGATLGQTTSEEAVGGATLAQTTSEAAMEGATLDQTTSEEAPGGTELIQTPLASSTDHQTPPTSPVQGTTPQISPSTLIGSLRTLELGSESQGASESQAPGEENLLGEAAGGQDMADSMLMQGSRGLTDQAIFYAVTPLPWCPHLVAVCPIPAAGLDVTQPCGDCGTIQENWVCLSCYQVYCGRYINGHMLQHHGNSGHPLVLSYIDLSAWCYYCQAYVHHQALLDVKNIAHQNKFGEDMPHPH
In words: Inhibition of HDAC6 in human LNCAP cells assessed as tubulin acetylation by Western blot analysis. In kind it is cell-based. Background: In western blotting, separated proteins are transferred to a membrane and probed.

Test [7] concerns DU-145. In words: Cytotoxicity against human DU145 cells. The class given is functional, cell-based.
The subject of test [8] is Jurkat. The test can be described thus: Cytotoxicity against human Jurkat cells. The class given is functional, cell-based.
Test [9] relates to LNCaP. The test can be described thus: Cytotoxicity against human LNCAP cells. The class given is functional, cell-based.
The nature of test [10]: Cytotoxicity against human Jurkat gamma1 cells. In kind it is functional, cell-based.

As usually defined, the IC50 is the concentration needed to halve the response being measured. Turning to `N#Cc1ccccc1-c1ccc(Cn2cccc(O)c2=O)cc1`, the IC50 is above 10 µg/mL in test [1], 26.7 µg/mL (≈ 88.3 µM) in test [2], 1.8 µg/mL (≈ 5.95 µM) in test [3] and above 40 µg/mL in test [4].

On to `Oc1cccn(Cc2cn(-c3ccccc3)nn2)c1=S`, for which the concentration for half-maximal inhibition (IC50) in test [1] was above 10 µg/mL; in [2], 3.2 µg/mL (≈ 11.3 µM); in test [3], 2.7 µg/mL (≈ 9.5 µM); in [4], 6.2 µg/mL (≈ 21.8 µM).

For the compound `Cc1ccccc1-c1ccc(Cn2cccc(O)c2=O)cc1`, the IC50 in [1] is above 10 µg/mL; in test [2], 27.6 µg/mL (≈ 94.7 µM); in test [3] it was above 10 µg/mL; in [4] it was 31.6 µg/mL (≈ 108 µM).

With `CN(C)c1ccc(-c2ccc(Cn3cccc(O)c3=S)cc2)cc1`, the “Ratio IC50” value in test [5] came out at 5. In addition, the IC50 in [1] is above 10 µg/mL; in test [2] it was 0.2 µg/mL (≈ 0.594 µM); in [3], 0.3 µg/mL (≈ 0.892 µM); in test [4], 7.4 µg/mL (≈ 22 µM).

Regarding `O=c1c(O)cccn1Cc1ccccc1`, the IC50 in test [1] was above 10 µg/mL; in [2], 9.3 µg/mL (≈ 46.2 µM); in test [3] it was above 10 µg/mL; in test [4], above 40 µg/mL.

Turning to `Cc1ccccc1-c1ccc(Cn2cccc(O)c2=S)cc1`, the IC50 was above 10 µg/mL in test [1]; 0.3 µg/mL (≈ 0.976 µM) in test [2]; 7.75 µM in test [6]; 13.6 µM in test [7]; 2.1 µg/mL (≈ 6.83 µM) in test [3]; 34.4 µg/mL (≈ 112 µM) in [4].

With `CN1CCc2c(c3ccccc3n2Cc2ccc(C(=O)NO)cc2)C1` [TUBASTATIN A], the IC50 was above 10 µg/mL in [1], 4.4 µg/mL (≈ 13.1 µM) in [2] and 8.8 µg/mL (≈ 26.2 µM) in test [4].

With `N#Cc1cccc(-c2ccc(Cn3cccc(O)c3=S)cc2)c1`, the IC50 is above 10 µg/mL in test [1], 0.4 µg/mL (≈ 1.26 µM) in test [2], 3.9 µg/mL (≈ 12.2 µM) in test [3] and 11.2 µg/mL (≈ 35.2 µM) in test [4].

As for `N#Cc1ccccc1-c1ccc(Cn2cccc(O)c2=S)cc1`, the IC50 is above 10 µg/mL in [1]; 8.95 µM in [8]; 0.9 µg/mL (≈ 2.83 µM) in [2]; 14.7 µM in test [9]; above 20 µM in [7]; above 10 µg/mL in test [3]. Moreover, the figures for the half-maximal inhibitory concentration (IC50) in test [4] and in test [10] were 31.7 µg/mL (≈ 99.6 µM) and “Not Active”, respectively.

Turning to `Cc1cccc(-c2ccc(Cn3cccc(O)c3=S)cc2)c1`, the IC50 in test [1] was above 10 µg/mL; in test [2], 0.3 µg/mL (≈ 0.976 µM); in [3], above 10 µg/mL; in test [4], 32.6 µg/mL (≈ 106 µM).

With `O=c1c(O)cccn1Cc1cn(-c2ccccc2)nn1`, the IC50 is above 10 µg/mL in test [1], above 40 µg/mL in test [2], above 10 µg/mL in test [3] and 18 µg/mL (≈ 67.1 µM) in [4].

With `Oc1ccc[nH]c1=S`, the IC50 was above 10 µg/mL in test [1], 12.7 µg/mL (≈ 99.9 µM) in [2], 6.1 µg/mL (≈ 48 µM) in [3] and 30.7 µg/mL (≈ 241 µM) in [4].

`CN(C)c1ccc(-n2cc(Cn3cccc(O)c3=O)nn2)cc1`: the IC50 is above 10 µg/mL in test [1], 14.5 µg/mL (≈ 46.6 µM) in test [2], 2 µg/mL (≈ 6.42 µM) in test [3] and above 40 µg/mL in test [4].

Take `Oc1cccn(Cc2ccccc2)c1=S`: the IC50 in test [1] was above 10 µg/mL; in test [2], 0.1 µg/mL (≈ 0.46 µM); in test [3], 5.8 µg/mL (≈ 26.7 µM); in [4], 6.5 µg/mL (≈ 29.9 µM).

As to `Cc1cccc(-c2ccc(Cn3cccc(O)c3=O)cc2)c1`, the IC50 is above 10 µg/mL in test [1], 12.6 µg/mL (≈ 43.2 µM) in test [2], above 10 µg/mL in [3] and 32.5 µg/mL (≈ 112 µM) in test [4].

As to `C[C@@H]1[C@H](O)[C@@H](C)/C=C/C=C/C=C/C=C/C=C/C=C/C=C/[C@H](O[C@@H]2O[C@H](C)[C@@H](O)[C@H](N)[C@@H]2O)C[C@@H]2O[C@](O)(C[C@@H](O)C[C@@H](O)[C@H](O)CC[C@@H](O)C[C@@H](O)CC(=O)O[C@H]1C)C[C@H](O)[C@H]2C(=O)O` [AMPHOTERICIN B], the IC50 in test [1] was above 10 µg/mL; in test [3], 0.2 µg/mL (≈ 0.216 µM); in test [4], 1.6 µg/mL (≈ 1.73 µM).

As to `CN(C)c1ccc(-c2ccc(Cn3cccc(O)c3=O)cc2)cn1`, the IC50 was above 10 µg/mL in [1], 38.9 µg/mL (≈ 121 µM) in test [2], above 10 µg/mL in [3] and above 40 µg/mL in [4].

For the compound `N#Cc1ccc(-c2ccc(Cn3cccc(O)c3=S)cc2)cc1`, the “Ratio IC50” value in test [5] is listed as 5. Moreover, the half-inhibitory concentration (IC50) in test [1] is above 10 µg/mL; in test [2] it was 0.7 µg/mL (≈ 2.2 µM); in [3] it was 0.9 µg/mL (≈ 2.83 µM); in [4], 6.1 µg/mL (≈ 19.2 µM).

Turning to `N=C(N)c1ccc(OCCCCCOc2ccc(C(=N)N)cc2)cc1` [PENTAMIDINE], the IC50 in test [1] was above 10 µg/mL; in test [2], 0.6 µg/mL (≈ 1.76 µM); in [3], 0.4 µg/mL (≈ 1.17 µM); in [4], 8.9 µg/mL (≈ 26.1 µM).

Turning to `Cc1ccc(-c2ccc(Cn3cccc(O)c3=O)cc2)cc1`, the IC50 in test [1] is above 10 µg/mL; in test [2], 6 µg/mL (≈ 20.6 µM); in test [3] it was above 10 µg/mL; in test [4], 29 µg/mL (≈ 99.5 µM).

As for `N#Cc1ccc(-c2ccc(Cn3cccc(O)c3=O)cc2)cc1`, the IC50 in test [1] was above 10 µg/mL; in [2], 4.6 µg/mL (≈ 15.2 µM); in [3] it was 3.5 µg/mL (≈ 11.6 µM); in [4], 5 µg/mL (≈ 16.5 µM).

`CN(C)c1ccc(-c2ccc(Cn3cccc(O)c3=S)cc2)cn1`: the IC50 in test [1] was above 10 µg/mL; in [2] it was 2.3 µg/mL (≈ 6.82 µM); in [3], 2.6 µg/mL (≈ 7.7 µM); in [4], 6.1 µg/mL (≈ 18.1 µM).

As to `Cc1ccc(-c2ccc(Cn3cccc(O)c3=S)cc2)cc1`, the IC50 in test [1] is above 10 µg/mL; in test [2] it was 0.3 µg/mL (≈ 0.976 µM); in test [3], 3.7 µg/mL (≈ 12 µM); in test [4], 31.3 µg/mL (≈ 102 µM).

For `COc1ccc(Cn2ccc3ccc(C(=O)NO)cc32)cc1`, the half-inhibitory concentration (IC50) was above 10 µg/mL in test [1], above 10 µg/mL in test [3] and above 40 µg/mL in test [4].

As to `CN(C)c1ccc(-c2ccc(Cn3cccc(O)c3=O)cc2)cc1`, the IC50 in [1] was above 10 µg/mL; in test [2] it was 7.5 µg/mL (≈ 23.4 µM); in test [3] it was above 10 µg/mL; in [4] it was 4 µg/mL (≈ 12.5 µM).

For `O=c1c(O)cccn1Cc1ccc(-c2ccccc2)cc1`, the IC50 in [1] is above 10 µg/mL; in test [2], 6.8 µg/mL (≈ 24.5 µM); in test [3] it was 1.7 µg/mL (≈ 6.13 µM); in [4], 30.9 µg/mL (≈ 111 µM).

As for `N#Cc1cccc(-c2ccc(Cn3cccc(O)c3=O)cc2)c1`, the IC50 in test [1] was above 10 µg/mL; in test [2], 9 µg/mL (≈ 29.8 µM); in test [3], 2.3 µg/mL (≈ 7.61 µM); in test [4] it was above 40 µg/mL.

With `Oc1cccnc1O`, the IC50 is above 10 µg/mL in [1], above 40 µg/mL in test [2], above 10 µg/mL in test [3] and above 40 µg/mL in test [4].

On to `Oc1cccn(Cc2ccc(-c3ccccc3)cc2)c1=S`, for which, in test [5], the “Ratio IC50” value is listed as 5. For the same compound, the IC50 in test [1] is above 10 µg/mL; in test [2], 0.1 µg/mL (≈ 0.341 µM); in test [3] it was 0.6 µg/mL (≈ 2.05 µM); in test [4] it was 6.3 µg/mL (≈ 21.5 µM).

For `CN(C)c1ccc(-n2cc(Cn3cccc(O)c3=S)nn2)cc1`, the IC50 is above 10 µg/mL in [1], 1.3 µg/mL (≈ 3.97 µM) in test [2], 1.5 µg/mL (≈ 4.58 µM) in [3] and 5.3 µg/mL (≈ 16.2 µM) in test [4].
